Measurements published in PubChem BioAssay (NCI).
Several values for one entry are separate records, joined by “and”; a condition that tells them apart may be missing. Equal entries are not always repeated.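 Assay format: 96-well plates, 48-hour exposure. The concentration for 50% growth inhibition is given as GI50. The concentration for full growth arrest is given as TGI.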

Columns and labels:
Test in all cases: growth of human tumour cells (NCI), 48 h
DU-145 prostate = tested on: DU-145 prostate
HOP-62 NSCLC = tested on: HOP-62 NSCLC
HS 578T breast = tested on: HS 578T breast
IGROV1 ovarian = tested on: IGROV1 ovarian
OVCAR-8 ovarian = tested on: OVCAR-8 ovarian
SF-295 CNS = tested on: SF-295 CNS
SF-539 CNS = tested on: SF-539 CNS
SK-MEL-2 melanoma = tested on: SK-MEL-2 melanoma
SNB-75 CNS = tested on: SNB-75 CNS
U251 CNS = tested on: U251 CNS

SMILES	GI50 (DU-145 prostate)	TGI (DU-145 prostate)	GI50 (HOP-62 NSCLC)	TGI (HOP-62 NSCLC)	GI50 (HS 578T breast)	TGI (HS 578T breast)	GI50 (IGROV1 ovarian)	TGI (IGROV1 ovarian)	GI50 (OVCAR-8 ovarian)	TGI (OVCAR-8 ovarian)	GI50 (SF-295 CNS)	TGI (SF-295 CNS)	GI50 (SF-539 CNS)	TGI (SF-539 CNS)	GI50 (SK-MEL-2 melanoma)	TGI (SK-MEL-2 melanoma)	GI50 (SNB-75 CNS)	TGI (SNB-75 CNS)	GI50 (U251 CNS)	TGI (U251 CNS)
COc1cc2c(Nc3cc(Cl)c(OC)c(Cl)c3)c(C#N)cnc2cc1OCCCN1CCN(C)CC1	1.28 µM	13 µM	3.39 µM	12.1 µM	2.82 µM	11.5 µM	0.189 µM	12 µM	1.24 µM	4.33 µM	2.49 µM	7.45 µM	1.01 µM	2.91 µM	1.32 µM	2.9 µM	6.57 µM	25.2 µM	1.92 µM	4.05 µM
COC(c1ccc(C(C)(C)C)cc1)(c1ccc(C(C)(C)C)cc1)c1ccc(C(C)(C)C)cc1		> 100 µM		> 100 µM		> 100 µM		> 100 µM		> 100 µM		> 100 µM		> 100 µM		> 100 µM		> 100 µM		> 100 µM
CCN(CC)CCCCCCNc1cccc2cc(Br)cnc12	12.7 µM	26.4 µM	10 µM	23.4 µM	6.03 µM	28.5 µM	3.25 µM	10.9 µM	10.1 µM	23.9 µM	2.88 µM	10 µM	6.47 µM	20.8 µM	5.01 µM	18 µM	2.82 µM	9.17 µM	5.36 µM	17.7 µM
CC(O)CCCOC(c1ccccc1)(c1ccccc1)c1ccccc1 (stereo not drawn)		30.4 µM		31.4 µM		39.6 µM		29.9 µM		28.2 µM		27.4 µM		31.2 µM		29.5 µM		25.8 µM		30.3 µM
CCCC/C(=C\C1=C(C)C(=O)C(OC)=C(OC)C1=O)C(=O)O	> 100 µM	> 100 µM	> 100 µM	> 100 µM	> 100 µM	> 100 µM	> 100 µM	> 100 µM	> 100 µM	> 100 µM	> 100 µM	> 100 µM	> 100 µM	> 100 µM	> 100 µM	> 100 µM	25.2 µM	> 100 µM	> 100 µM	> 100 µM
CC(C)[C@H](O)C(=O)N[C@@H](C)C(=O)N[C@@H]1C(=O)N(C)CCc2ccccc21	> 100 µM	> 100 µM	> 100 µM	> 100 µM	> 100 µM	> 100 µM	> 100 µM	> 100 µM	> 100 µM	> 100 µM	> 100 µM	> 100 µM	> 100 µM	> 100 µM	> 100 µM	> 100 µM	> 100 µM	> 100 µM	> 100 µM	> 100 µM
CC(C)CC(C/C=C1/CC(CO)(COC(=O)C(C)(C)C)OC1=O)CC(C)C (stereo not drawn)	20.2 µM	49.2 µM and 11.5 µM	10.8 µM and 1.92 µM	31.7 µM and 20.1 µM		24.2 µM and 14.7 µM		30.6 µM and 24.4 µM		32.9 µM and 38.7 µM	12.2 µM and 1.7 µM	36.7 µM and 12.7 µM		21.3 µM		30.3 µM and 24.3 µM		23.6 µM and 26.6 µM		21.7 µM
COc1ccc(C(CC(=O)c2ccc3c(c2)OCO3)c2c(O)c3ccccc3oc2=O)cc1OC (stereo not drawn)		> 100 µM		> 100 µM		> 100 µM		> 100 µM		> 100 µM		> 100 µM		> 100 µM		> 100 µM		> 100 µM		> 100 µM
